Measurements reported in patent US6642392B1 (priority 1997, dated 2003).
Where two headings read alike, the source gives them in different places.

What was measured:
Type in all cases: in vivo
[1] = test system: Eiysiphe graminis f. sp. tritici; assay: Test A: wheat powdery mildew, preventive spray on wheat seedlings; conditions: for Test A disease control rating: wheat powdery mildew; for Test A disease control rating (100 = 100% disease control, 0 = no disease control): wheat seedlings sprayed to run-off, inoculated the following day, rating relative to controls, unmarked compounds (standard test rate)
Summary of the method: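 Preventive test: seedlings inoculated with powdery mildew spores one day after run-off spraying of a suspension. Ratings after 7 days in a 20° C growth chamber express percent disease control versus controls.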

Puccinia recondita = assay: Test B: wheat leaf rust, preventive spray on wheat seedlings; conditions: for Test B disease control rating: wheat leaf rust; for Test B disease control rating (100 = 100% disease control, 0 = no disease control): wheat seedlings sprayed to run-off, inoculated the following day, rating relative to controls, unmarked compounds (standard test rate)
Summary of the method: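 Preventive test: P. recondita spores were applied one day after a run-off spray of compound suspension on wheat seedlings. Plants had 24 h at 20 °C in saturated air plus 6 days in a 20 °C growth chamber. Scoring is % disease control (100 = full) relative to controls.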

Pyricularia oryzae = conditions: for Test C disease control rating: rice blast; for Test C disease control rating (100 = 100% disease control, 0 = no disease control): rice seedlings sprayed to run-off, inoculated the following day, rating relative to controls, unmarked compounds (standard test rate)
Phytophthora infestans = conditions: for Test D disease control rating: tomato late blight; for Test D disease control rating (100 = 100% disease control, 0 = no disease control): tomato seedlings sprayed to run-off, inoculated the following day, rating relative to controls, unmarked compounds (standard test rate)
Botrytis cinerea = assay: Test E: gray mold, preventive spray on cucumber seedlings; conditions: for Test E disease control rating: gray mold on cucumber; for Test E disease control rating (100 = 100% disease control, 0 = no disease control): cucumber seedlings sprayed to run-off, inoculated the following day, rating relative to controls, unmarked compounds (standard test rate)
Summary of the method: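 Preventive spray on cucumber seedlings used a suspension (3% acetone, 250 ppm Trem 014), applied to run-off one day before inoculation with Botrytis cinerea spores. Plants were held 48 h at 20° C in saturated air, then 5 days at 20° C. Percent disease control was scored relative to untreated plants.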

[2] = 100 = 100% disease control, 0 = no control relative to controls, unmarked entries (standard test concentration)
[3] = 100 = 100% disease control, 0 = no control, unmarked entries (standard test concentration)

C[C@H](COc1cccc(Br)c1)NC(=O)C(C#N)C(C)(C)C (single isomer, unassigned) [9c]
Test A disease control rating [1, 2]: 62%
Test B disease control rating (Puccinia recondita; [3]): 28%
Test C disease control rating (Pyricularia oryzae; [3]): 100%
Test D disease control rating (Phytophthora infestans; [3]): 51%
Test E disease control rating (Botrytis cinerea; [3]): 0%

CCC1(C(=O)NC(C)COc2ccc(C)cc2Cl)C(C)C1(Cl)Cl (stereo not drawn) [compound 126]
Test A disease control rating ([1]; tested at 40 ppm): 0%
Test B disease control rating (Puccinia recondita; tested at 40 ppm): 0%
Test C disease control rating (Pyricularia oryzae; tested at 40 ppm): 73%
Test D disease control rating (Phytophthora infestans; tested at 40 ppm): 0%
Test E disease control rating (Botrytis cinerea; tested at 40 ppm): 0%

CCC1(C(=O)NC(C)COc2ccccc2C(F)(F)F)C(C)C1(Cl)Cl (mixture of isomers) [94b]
Test A disease control rating ([1]; tested at 40 ppm): 71%
Test B disease control rating (Puccinia recondita; tested at 40 ppm): 0%
Test C disease control rating (Pyricularia oryzae; tested at 40 ppm): 0%
Test D disease control rating (Phytophthora infestans; tested at 40 ppm): 0%
Test E disease control rating (Botrytis cinerea; tested at 40 ppm): 0%

CC(COc1ccccc1)NC(=O)C1(C)CC1(Cl)Cl (mixture of isomers) [compound 311]
Test A disease control rating (100 = 100% disease control, 0 = no disease control) [1]: 84%
Test B disease control rating (100 = 100% disease control, 0 = no disease control) (Puccinia recondita): 0%
Test C disease control rating (100 = 100% disease control, 0 = no disease control) (Pyricularia oryzae): 0%
Test D disease control rating (100 = 100% disease control, 0 = no disease control) (Phytophthora infestans): 0%
Test E disease control rating (100 = 100% disease control, 0 = no disease control) (Botrytis cinerea): 0%

Cc1ccccc1OCC(C)NC(=O)C(C#N)C(C)(C)C (mixture of isomers) [compound 19]
Test A disease control rating [1, 2]: 0%
Test B disease control rating (Puccinia recondita; [3]): 0%
Test C disease control rating (Pyricularia oryzae; [3]): 97%
Test D disease control rating (Phytophthora infestans; [3]): 0%
Test E disease control rating (Botrytis cinerea; [3]): 0%

C[C@H](COc1cc(F)cc(F)c1F)NC(=O)C(C#N)C(C)(C)C (single isomer, unassigned) [168b]
Test A disease control rating [1, 2]: 95%
Test B disease control rating (Puccinia recondita; [3]): 0%
Test C disease control rating (Pyricularia oryzae; [3]): 94%
Test D disease control rating (Phytophthora infestans; [3]): 45%
Test E disease control rating (Botrytis cinerea; [3]): 86%

C[C@H](COc1ccc(F)cc1Cl)NC(=O)C(C#N)C(C)(C)C (single isomer, unassigned) [37a]
Test A disease control rating [1, 2]: 62%
Test B disease control rating (Puccinia recondita; [3]): 68%
Test C disease control rating (Pyricularia oryzae; [3]): 100%
Test D disease control rating (Phytophthora infestans; [3]): 68%
Test E disease control rating (Botrytis cinerea; [3]): 0%

CCC1(C(=O)NC(C)COc2cc(F)cc(F)c2Cl)C(C)C1(Cl)Cl (stereo not drawn) [compound 123]
Test A disease control rating ([1]; tested at 40 ppm): 90%
Test B disease control rating (Puccinia recondita; tested at 40 ppm): 0%
Test C disease control rating (Pyricularia oryzae; tested at 40 ppm): 53%
Test D disease control rating (Phytophthora infestans; tested at 40 ppm): 0%
Test E disease control rating (Botrytis cinerea; tested at 40 ppm): 0%

CC(COc1ccccc1Br)NC(=O)C(C#N)C(C)C(C)(C)C (mixture of isomers) [compound 59]
Test A disease control rating ([1]; tested at 40 ppm): 0%
Test B disease control rating (Puccinia recondita; tested at 40 ppm): 0%
Test C disease control rating (Pyricularia oryzae; tested at 40 ppm): 52%
Test D disease control rating (Phytophthora infestans; tested at 40 ppm): 0%
Test E disease control rating (Botrytis cinerea; tested at 40 ppm): 0%

C[C@H](COc1ccccc1Br)NC(=O)C(C#N)C(C)(C)C (single isomer, unassigned) [8b]
Test A disease control rating [1, 2]: 37%
Test B disease control rating (Puccinia recondita; [3]): 0%
Test C disease control rating (Pyricularia oryzae; [3]): 100%
Test D disease control rating (Phytophthora infestans; [3]): 89%
Test E disease control rating (Botrytis cinerea; [3]): 47%

Cc1c(Br)cc(C#N)n1OCC(C)NC(=O)C(C#N)C(C)(C)C (mixture of isomers) [compound 50]
Test A disease control rating [1, 2]: 86%
Test B disease control rating (Puccinia recondita; [3]): 28%
Test C disease control rating (Pyricularia oryzae; [3]): 53%
Test D disease control rating (Phytophthora infestans; [3]): 57%
Test E disease control rating (Botrytis cinerea; [3]): 0%

CC(C=Cc1ccccc1C#N)NC(=O)C(C#N)C(C)(C)C (mixture of isomers) [compound 307]
Test A disease control rating (100 = 100% disease control, 0 = no disease control) [1]: 36%
Test B disease control rating (100 = 100% disease control, 0 = no disease control) (Puccinia recondita): 0%
Test C disease control rating (100 = 100% disease control, 0 = no disease control) (Pyricularia oryzae): 94%
Test D disease control rating (100 = 100% disease control, 0 = no disease control) (Phytophthora infestans): 0%
Test E disease control rating (100 = 100% disease control, 0 = no disease control) (Botrytis cinerea): 0%

C=CC(C)(CF)C(C#N)C(=O)NC(C)COc1cc(Cl)ccc1Cl (mixture of isomers) [compound 219]
Test A disease control rating (100 = 100% disease control, 0 = no disease control) [1]: 86%
Test B disease control rating (100 = 100% disease control, 0 = no disease control) (Puccinia recondita): 86%
Test C disease control rating (100 = 100% disease control, 0 = no disease control) (Pyricularia oryzae): 99%
Test D disease control rating (100 = 100% disease control, 0 = no disease control) (Phytophthora infestans): 96%
Test E disease control rating (100 = 100% disease control, 0 = no disease control) (Botrytis cinerea): 0%

CCC1(C(=O)NC(C)COc2cc(Cl)ccc2C#N)C(C)C1(Cl)Cl (stereo not drawn) [compound 239]
Test A disease control rating (100 = 100% disease control, 0 = no disease control) [1]: 0%
Test B disease control rating (100 = 100% disease control, 0 = no disease control) (Puccinia recondita): 0%
Test C disease control rating (100 = 100% disease control, 0 = no disease control) (Pyricularia oryzae): 97%
Test D disease control rating (100 = 100% disease control, 0 = no disease control) (Phytophthora infestans): 88%
Test E disease control rating (100 = 100% disease control, 0 = no disease control) (Botrytis cinerea): 0%

C[C@H](COc1cccc(Cl)c1)NC(=O)C(C#N)C(C)(C)C (single isomer, unassigned) [6e]
Test A disease control rating [1, 2]: 0%
Test B disease control rating (Puccinia recondita; [3]): 0%
Test C disease control rating (Pyricularia oryzae; [3]): 100%
Test D disease control rating (Phytophthora infestans; [3]): 96%
Test E disease control rating (Botrytis cinerea; [3]): 70%

CCC1(C(=O)NC(C)COc2cc(Cl)cc(Cl)c2Cl)C(C)C1(Cl)Cl (stereo not drawn) [compound 116]
Test A disease control rating ([1]; tested at 40 ppm): 21%
Test B disease control rating (Puccinia recondita; tested at 40 ppm): 0%
Test C disease control rating (Pyricularia oryzae; tested at 40 ppm): 0%
Test D disease control rating (Phytophthora infestans; tested at 40 ppm): 0%
Test E disease control rating (Botrytis cinerea; tested at 40 ppm): 0%

CCC1(C(=O)NCC=Cc2cc(Cl)ccc2Cl)C(C)C1(Cl)Cl (stereo not drawn) [compound 163]
Test A disease control rating ([1]; tested at 40 ppm): 0%
Test B disease control rating (Puccinia recondita; tested at 40 ppm): 0%
Test C disease control rating (Pyricularia oryzae; tested at 40 ppm): 52%
Test D disease control rating (Phytophthora infestans; tested at 40 ppm): 42%
Test E disease control rating (Botrytis cinerea; tested at 40 ppm): 0%

C=CCC(C#N)C(=O)NC(C)C(Oc1cc(F)ccc1F)c1ccccc1 (mixture of isomers) [compound 283]
Test A disease control rating (100 = 100% disease control, 0 = no disease control) [1]: 0%
Test B disease control rating (100 = 100% disease control, 0 = no disease control) (Puccinia recondita): 0%
Test C disease control rating (100 = 100% disease control, 0 = no disease control) (Pyricularia oryzae): 99%
Test D disease control rating (100 = 100% disease control, 0 = no disease control) (Phytophthora infestans): 0%
Test E disease control rating (100 = 100% disease control, 0 = no disease control) (Botrytis cinerea): 0%

CC(COn1c(Cl)c(Cl)c(Cl)c1C#N)NC(=O)C(C#N)C(C)(C)C (mixture of isomers) [compound 52]
Test A disease control rating [1, 2]: 71%
Test B disease control rating (Puccinia recondita; [3]): 86%
Test C disease control rating (Pyricularia oryzae; [3]): 0%
Test D disease control rating (Phytophthora infestans; [3]): 81%
Test E disease control rating (Botrytis cinerea; [3]): 0%

C[C@H](COc1ccccc1)NC(=O)C(C#N)C(C)(C)C (single isomer, unassigned) [1e]
Test A disease control rating [1, 2]: 92%
Test B disease control rating (Puccinia recondita; [3]): 0%
Test C disease control rating (Pyricularia oryzae; [3]): 100%
Test D disease control rating (Phytophthora infestans; [3]): 80%
Test E disease control rating (Botrytis cinerea; [3]): 47%

CC(COc1ccccc1)NC(=O)C(C#N)C(C)(C)C (single isomer, unassigned) [1c]
Test A disease control rating [1, 2]: 60%
Test B disease control rating (Puccinia recondita; [3]): 85%
Test C disease control rating (Pyricularia oryzae; [3]): 73%
Test D disease control rating (Phytophthora infestans; [3]): 16%
Test E disease control rating (Botrytis cinerea; [3]): 0%

C[C@H](COc1ccccc1Br)NC(=O)C(C#N)C(C)(C)C (single isomer, unassigned) [8c]
Test A disease control rating [1, 2]: 0%
Test B disease control rating (Puccinia recondita; [3]): 0%
Test C disease control rating (Pyricularia oryzae; [3]): 100%
Test D disease control rating (Phytophthora infestans; [3]): 0%
Test E disease control rating (Botrytis cinerea; [3]): 0%

CC(C=Cc1cc(F)ccc1F)NC(=O)C(C#N)C(C)(C)C (single isomer, unassigned) [229b]
Test A disease control rating (100 = 100% disease control, 0 = no disease control) [1]: 0%
Test B disease control rating (100 = 100% disease control, 0 = no disease control) (Puccinia recondita): 0%
Test C disease control rating (100 = 100% disease control, 0 = no disease control) (Pyricularia oryzae): 100%
Test D disease control rating (100 = 100% disease control, 0 = no disease control) (Phytophthora infestans): 25%
Test E disease control rating (100 = 100% disease control, 0 = no disease control) (Botrytis cinerea): 95%

CCC1(C(=O)NCC=Cc2ccccc2Cl)C(C)C1(Cl)Cl (stereo not drawn) [compound 158]
Test A disease control rating ([1]; tested at 40 ppm): 0%
Test B disease control rating (Puccinia recondita; tested at 40 ppm): 0%
Test C disease control rating (Pyricularia oryzae; tested at 40 ppm): 52%
Test D disease control rating (Phytophthora infestans; tested at 40 ppm): 0%
Test E disease control rating (Botrytis cinerea; tested at 40 ppm): 0%

C[C@H](COc1ccc(F)c(F)c1F)NC(=O)C(C#N)C(C)(C)C (single isomer, unassigned) [190b]
Test A disease control rating [1, 2]: 0%
Test B disease control rating (Puccinia recondita; [3]): 0%
Test C disease control rating (Pyricularia oryzae; [3]): 94%
Test D disease control rating (Phytophthora infestans; [3]): 0%
Test E disease control rating (Botrytis cinerea; [3]): 0%

CCC1(C(=O)NCC=Cc2cccs2)C(C)C1(Cl)Cl (stereo not drawn) [compound 164]
Test A disease control rating [1, 2]: 0%
Test B disease control rating (Puccinia recondita; [3]): 0%
Test C disease control rating (Pyricularia oryzae; [3]): 72%
Test D disease control rating (Phytophthora infestans; [3]): 56%
Test E disease control rating (Botrytis cinerea; [3]): 7%

CC(COc1ccccc1C#N)NC(=O)C(C#N)C(C)C(C)(C)C (mixture of isomers) [compound 60]
Test A disease control rating ([1]; tested at 40 ppm): 91%
Test B disease control rating (Puccinia recondita; tested at 40 ppm): 0%
Test C disease control rating (Pyricularia oryzae; tested at 40 ppm): 0%
Test D disease control rating (Phytophthora infestans; tested at 40 ppm): 0%
Test E disease control rating (Botrytis cinerea; tested at 40 ppm): 0%
